Laboratory results taken from PMC9161616, “A first-in-human phase 1/2 study of FGF401 and combination of FGF401 with spartalizumab in patients with hepatocellular carcinoma or biomarker-selected solid tumors” (Journal of Experimental & Clinical Cancer Research : CR, 2022).

What was measured:
[1] = system: patients with HCC or other solid tumors positive for FGFR4 and KLB; assay: Phase 1 dose escalation, DLTs, MTD/RP2D, FGF401 single agent; type: in vivo
Experimental: Phase 1: Escalation with overdose control (EWOC) principle based on the observed dose-limiting toxicities (DLTs) was employed while escalating dosage starting with 50 mg until the lowest of MTD and/or RP2D was met. Sample size to have reasonable operating characteristics was estimated to be a minimum of 21 evaluable patients.
To further assess the effect of food uptake on FGF401, additional patients were recruited upon observance of clinical activity to receive doses under fed condition, in parallel with the fasted dose escalation. The starting dose was estimated at 80 mg qd. Principles of dose escalation aligned with those under fasted condition.
(§1) The primary endpoint for the phase 1 parts was the incidence of DLTs evaluated. The probability of DLTs during the evaluation period was estimated for patients in the dose determining set (DDS) for each treatment arm, FGF401 single agent and FGF401 + spartalizumab combination, to estimate respective MTDs. DDS for the phase 1 single agent or combination comprised safety set patients who either experienced a DLT or had confirmation by both the sponsor and investigators that no DLT occurred during the first cycle, C1 (first 2 cycles: C1, C2) based on at least 66% of planned doses administered in C1 (C1 and C2) with a minimum of 21 (42) days of observation following the first dose. For phase 2, the primary efficacy endpoint to investigate the antitumor activity of FGF401 included time to tumor progression assessed in groups 1 and 2, and overall response rate (ORR) in group 3 based on local assessment per Response Evaluation Criteria in Solid Tumors (RECIST) v1.1.
For the single-agent phase 1 primary outcome, an extended Bayesian hierarchical logistical regression model (BHLRM) was applied to estimate the relationship between dose and stratum (fasted vs fed) specific probability of a patient experiencing a DLT. […]

[2] = system: HCC or other solid tumors expressing FGFR4 and KLB; assay: Antitumor activity per RECIST v1.1, FGF401 single agent; type: in vivo, human
Source text: as §1
Antitumor activity was locally assessed as per RECIST v1.1 and immune-related response criteria (irRC) (only for combination arm) and evaluated using the following endpoints: best overall response, overall response rate (ORR), disease control rate (DCR), time to tumor progression, and overall survival (OS). Estimation of best overall response (BOR) was based on assessments collected no later than 30 days after the last study treatment administration date for RECIST v1.1 and 150 days for irRC.
The primary and secondary efficacy outcomes were analyzed in the full analysis set according to the assigned treatment stratified by study group, which we defined as a subgroup (fast/fed, group 1/2/3) of patients who were administered with similar dose levels on a given treatment arm and phase. The results have been presented as per RECIST v1.1. The number of patients having BOR was provided along with ORR and DCR with 95% exact binomial CIs (Clopper-Pearson). Waterfall plots for the phase 1 parts depicted the best percentage change from baseline in sum of longest diameters (SOD). […] The estimate at a given time point was the estimated probability that a patient would remain event free up to that time point. A positive trend regarding the activity of FGF401 in groups 1 and 2 was concluded if the observed lower limit of their respective 90% CI was no less than their expected median TTPs of 1.5 months and 2.2 months estimated in the absence of FGF401. KM plots were also used to estimate OS rate with one-sided 95% CI at 3 months, 5 months, 7 months, and 9 months for single agent phase 1 overall and phase 2: groups 1, 2; for single agent phase 2 – group 3, OS, and progression free survival (PFS) were calculated regardless of RP2D but for overall tumor type.
Exploratory biomarker analyses were conducted using full analysis set to assess efficacy and FGF19 signaling inhibition associated with FGF401. The best tumor percentage change from baseline as per RECIST v1.1 were investigated by FGF19 status (positive/negative) as determined through RT-qPCR and IHC assay. An evaluable RT-qPCR sample was considered FGF19+ if mean threshold cycle for FGF19 was ≤35, and FGF19- otherwise. Among the patients with evaluable IHC assay samples, those who had % cellular positivity > 0 were considered FGF19 + .

phospho-FGFR4 = assay: Preclinical in vivo phospho-FGFR4 inhibition; details: equivalent of 52.1 nM
[3] = system: cell-line derived HCC xenografts and patient-derived HCC xenografts; details: dose-dependent manner; cited from earlier work
[4] = single agent, phase I and phase II in total

COCCNc1cc(NC(=O)N2CCCc3cc(CN4CCN(C)CC4=O)c(C=O)nc32)ncc1C#N [FGF401, roblitinib]
DLT: increase in blood bilirubin ([1]; human, in vivo, 21 days): 2 n | DLT: increase in transaminases ([1]; human, in vivo, 21 days): 4 n | MTD ([1]; single agent, 50 to 150 mg): not reached | median TTP ([2]; 120 mg, phase 1, fed and fasted combined, N = 45): 2.63 months | median OS ([2]; 120 mg, phase 1, fed and fasted combined, n/N = 38/45): 5.72 months | patients reporting PR at RP2D in phase 2 ([2]; all in patients with HCC): 4 patients | response by FGF19 IHC status ([2]; patients with HCC, phase 1/2, 27 FGF19 positive, 33 negative): trend for better response among the FGF19 IHC-positive patients | responses in patients with other tumor types ([2]; phase 1): no responses | partial response (PR) ([2]; phase 1, 59 evaluable patients with HCC, 80 mg fasted, 80 mg fed, 150 mg fasted, each): 3 patients | complete response (CR) ([2]; phase 1, 59 evaluable patients with HCC, 120 mg, fasted): 1 patient | probability estimate of remaining event free (90% CI) at 9 months ([2]; phase 2 group 1): 30.4 [19.1, 100] | PR ([2]; phase 2 group 1 (n = 28), 120 mg qd): 2 patients | probability estimate of remaining event free (90% CI) at 9 months ([2]; phase 2 group 2): 61.5 (49.8, 100) | PR ([2]; phase 2 group 2 (n = 31), 120 mg qd): 2 patients | probability estimate of remaining event free (90% CI) at 9 months ([2]; phase 2 group 3): 24.7 [12.6, 100] | CR [2, 4]: 1 patients | PR [2, 4]: 7 patients | patients with objective responses [2, 4]: 8 patients | association of FGF19 transcript level (RT-qPCR) with response ([2]; single-agent arm, prescreening biopsy): no clear association with response | IC90 equivalent in human plasma (phospho-FGFR4): ~ 23 ng/mL | tumor response in xenografts [3]: robustly induces regression/stasis
